# In patent publication US7534781B2 (DSM IP Assets B.V., priority 2003, dated 2009):
# What was measured:
# Type in all cases: physicochemical
# [1] = Tapped density according to USP 24, method II; conditions: trihydrate; for Tap. dens. (dt): USP 24, method II; for db*(1/db − 1/dt)*100%: compressibility index from bulk and tapped density
# [2] = Bulk density according to USP 24, method I; conditions: trihydrate
# Source text: Preferably, the crystalline powder according to the invention has a bulk density higher than 0.46 g/ml, preferably higher than 0.5 g/ml, more preferably higher than 0.55 g/ml. This further improves the flow properties. Moreover, an increased bulk density is advantageous as crystalline powder may be fed into a certain volume, for instance a capsule. There is no specific upper limit for the bulk density. The bulk density may be less than 0.8 g/ml, for instance less than 0.7 g/ml. The bulk density is preferably determined according to USP 24, method I, (page 1913).
# The bulk density was determined according to USP 24, method I, (page 1913).
# [3] = Dissolution test of capsules, USP 27 amoxicillin capsules, apparatus 1; conditions: 500 mg (anhydrous basis) in gelatine capsule size 0, 900 ml water, 37° C., 100 rpm
# Method: In one aspect of the invention, the crystalline powder according to the invention has a high dissolution rate. Preferably, the crystalline powder according to the invention has a T85% of less than 55 minutes, preferably less than 50 minutes, preferably less than 40 minutes, preferably less than 30 minutes, preferably less than 25 minutes, preferably less than 20 minutes. T85% may for instance be above 5 minutes. […] The determination of T85% is preferably carried out under conditions as defined in USP 27, chapter “amoxicillin capsules”, involving the use of apparatus 1 and applying a stirring rate of 100 rpm (USP 27, paragraph 711). Preferably, samples are taken at regular intervals, e.g. each 5 minutes, to determine the quantity of dissolved amoxicillin by UV absorption.
# No auxiliaries were added. Dissolution tests were applied using apparatus 1 under the conditions as described in USP 27 under paragraph “amoxicillin capsules”, including a stirring rate of 100 rpm and a temperature of 37° C. Six beakers each containing 900 ml of water were used. Samples were taken each 5 minutes, and the quantity of dissolved amoxicillin were determined employing UV absorption at the wavelength of maximum absorbance at 272 nm. • 84 wt. % of the amoxicillin was dissolved in 15 minutes. • 90 wt. % of the amoxicillin was dissolved in 20 minutes.
# [4] = Particle size distribution (d10, d50) by laser diffraction, Malvern particle sizer 2600 C; conditions: dry powder, f=300 mm, trihydrate
# Source text: The d10 and d50 are known ways for indicating a particle size distribution, d50 referring to the value for the particle size such that 50 vol. % of the particles has a particle size smaller than said value. The d50 is also referred to as average volume-based grain size. Likewise, d10 refers to the value for the particle size such that 10 vol. % of the particles has a particle size smaller than said value. A preferred way for determining d10 and d50 is laser diffraction, preferably using Malvern equipment. A suitable apparatus for determining d10 and d50 is a Malvern particle sizer 2600 C obtainable from Malvern Instruments Ltd., Malvern UK, for instance using an objective of f=300 mm and a beam length of 14.30 mm. A polydisperse analysis model may advantageously be used.
# The particle size distribution (including d10 and d50) of samples from the mixer was determined using a Malvern particle sizer 2600 C with objective f=300 mm, malvern sample measurement unit PS1 and a Malvern dry powder feeder PS 64. The beam length was 14.30 mm. A polydisperse analysis model was used.
# Flow through Klein cup = conditions: Klein cup 8 mm; overheads fraction after air jet sieving 75 μm
# Method: The powder of example V was subjected to air jet sieving (200 LS-N air jet sieve manufactured by Hosakawa Alpine). Sieving was carried out using a 75 μm screen during 10 minutes. A few agglomerates formed during said sieving were removed from the overheads fraction (not passed through the sieve) tusing a vibrating sieve (425 μm), after which tapped density, bulk density, d50, d10 of the resulting crystals of the overheads fraction was determined.
SMILES,Tap. dens. (dt) [1] [g/mL],db*(1/db − 1/dt)*100% [1] [%],Bulk dens. (db) [2] [g/mL],amoxicillin dissolved ([3]; in 15 minutes) [wt. %],amoxicillin dissolved ([3]; in 20 minutes) [wt. %],d10 [4] [μm],d50 [4] [μm],flow through Klein cup (Flow through Klein cup)
"CC1(C)S[C@@H]2[C@H](NC(=O)[C@H](N)c3ccc(O)cc3)C(=O)N2[C@H]1C(=O)O.O.O.O [Ex. IV, amoxicillin trihydrate]",0.81,33,0.54,84,90,7.0,37.0,
"CC1(C)S[C@@H]2[C@H](NC(=O)[C@H](N)c3ccc(O)cc3)C(=O)N2[C@H]1C(=O)O.O.O.O [Comp. A, amoxicillin trihydrate, reference compound]",0.55,53,0.26,,,4.0,17,
"CC1(C)S[C@@H]2[C@H](NC(=O)[C@H](N)c3ccc(O)cc3)C(=O)N2[C@H]1C(=O)O.O.O.O [Ex. III, amoxicillin trihydrate]",0.81,31,0.56,,,9.9,47.8,
"CC1(C)S[C@@H]2[C@H](NC(=O)[C@H](N)c3ccc(O)cc3)C(=O)N2[C@H]1C(=O)O.O.O.O [Ex. VI, amoxicillin trihydrate]",0.74,20,0.59,,,36,86,flows through Klein cup 8 mm
"CC1(C)S[C@@H]2[C@H](NC(=O)[C@H](N)c3ccc(O)cc3)C(=O)N2[C@H]1C(=O)O.O.O.O [Ex. V, amoxicillin trihydrate]",0.79,26,0.58,,,19,61,
"CC1(C)S[C@@H]2[C@H](NC(=O)[C@H](N)c3ccc(O)cc3)C(=O)N2[C@H]1C(=O)O.O.O.O [Ex. I, amoxicillin trihydrate]",0.73,30,0.51,,,,,
"CC1(C)S[C@@H]2[C@H](NC(=O)[C@H](N)c3ccc(O)cc3)C(=O)N2[C@H]1C(=O)O.O.O.O [Ref. B, amoxicillin trihydrate, reference compound]",0.47,45,0.26,,,,,
"CC1(C)S[C@@H]2[C@H](NC(=O)[C@H](N)c3ccc(O)cc3)C(=O)N2[C@H]1C(=O)O.O.O.O [Ex. II, amoxicillin trihydrate]",0.78,28,0.56,,,8.8,42.8,
